Measurements reported in ChEMBL document CHEMBL5724914, “Linking interpersonal differences in gut microbiota composition and drug biotransformation activity” (2024).

Assays:
[1] = human gut metagenome, 24 h, 2 µM
[2] = The drug is tested on WLS-220 corresponding to human gut metagenome with ENA study accession number: PRJEB37062 and ENA sample accession number: ERS12561769 for biotransformation under anaerobic condition. The drug concentrations were measured over 9 timepoints collected between 0 and 24 hours of incubation by liquid-chromatography-coupled mass spectrometry (LC–MS); settings: 2 µM
[3] = The drug is tested on WLS-370 corresponding to human gut metagenome with ENA study accession number: PRJEB37062 and ENA sample accession number: ERS12561793 for biotransformation under anaerobic condition. The drug concentrations were measured over 9 timepoints collected between 0 and 24 hours of incubation by liquid-chromatography-coupled mass spectrometry (LC–MS); settings: 2 µM
[4] = The drug is tested on Z-013 corresponding to rabbit gut metagenome with ENA study accession number: PRJEB37062 and ENA sample accession number: ERS12561813 for biotransformation under anaerobic condition. The drug concentrations were measured over 9 timepoints collected between 0 and 24 hours of incubation by liquid-chromatography-coupled mass spectrometry (LC–MS); settings: 2 µM
[5] = human gut metagenome, 24 h, 2 µM; remark: listed apart in the source
[6] = The drug is tested on Z-010 corresponding to metagenome with ENA study accession number: PRJEB37062 and ENA sample accession number: ERS12561810 for biotransformation under anaerobic condition. The drug concentrations were measured over 9 timepoints collected between 0 and 24 hours of incubation by liquid-chromatography-coupled mass spectrometry (LC–MS); settings: 2 µM
[7] = human gut metagenome, 24 h, 2 µM; remark: listed apart in the source
[8] = The drug is tested on Z-027 corresponding to metagenome with ENA study accession number: PRJEB37062 and ENA sample accession number: ERS12561826 for biotransformation under anaerobic condition. The drug concentrations were measured over 9 timepoints collected between 0 and 24 hours of incubation by liquid-chromatography-coupled mass spectrometry (LC–MS); settings: 2 µM
[9] = human gut metagenome, 24 h, 2 µM; remark: listed apart in the source
[10] = The drug is tested on Z-005 corresponding to metagenome with ENA study accession number: PRJEB37062 and ENA sample accession number: ERS12561805 for biotransformation under anaerobic condition. The drug concentrations were measured over 9 timepoints collected between 0 and 24 hours of incubation by liquid-chromatography-coupled mass spectrometry (LC–MS); settings: 2 µM
[11] = The drug is tested on Z-006 corresponding to mouse gut metagenome with ENA study accession number: PRJEB37062 and ENA sample accession number: ERS12561806 for biotransformation under anaerobic condition. The drug concentrations were measured over 9 timepoints collected between 0 and 24 hours of incubation by liquid-chromatography-coupled mass spectrometry (LC–MS); settings: 2 µM
[12] = The drug is tested on Z-011 corresponding to mouse gut metagenome with ENA study accession number: PRJEB37062 and ENA sample accession number: ERS12561811 for biotransformation under anaerobic condition. The drug concentrations were measured over 9 timepoints collected between 0 and 24 hours of incubation by liquid-chromatography-coupled mass spectrometry (LC–MS); settings: 2 µM
[13] = human gut metagenome, 24 h, 2 µM; remark: listed apart in the source
[14] = human gut metagenome, 24 h, 2 µM; remark: listed apart in the source
[15] = human gut metagenome, 24 h, 2 µM; remark: listed apart in the source
[16] = The drug is tested on WLS-073 corresponding to human gut metagenome with ENA study accession number: PRJEB37062 and ENA sample accession number: ERS12561749 for biotransformation under anaerobic condition. The drug concentrations were measured over 9 timepoints collected between 0 and 24 hours of incubation by liquid-chromatography-coupled mass spectrometry (LC–MS); settings: 2 µM
[17] = The drug is tested on Z-009 corresponding to pig gut metagenome with ENA study accession number: PRJEB37062 and ENA sample accession number: ERS12561809 for biotransformation under anaerobic condition. The drug concentrations were measured over 9 timepoints collected between 0 and 24 hours of incubation by liquid-chromatography-coupled mass spectrometry (LC–MS); settings: 2 µM
[18] = human gut metagenome, 24 h, 2 µM; remark: listed apart in the source
[19] = human gut metagenome, 24 h, 2 µM; remark: listed apart in the source
[20] = human gut metagenome, 24 h, 2 µM; remark: listed apart in the source
Also: call rule not given here.

Row | Structure (SMILES) | Bacterial Biotransformation [1] | Bacterial Biotransformation [2] | Bacterial Biotransformation [3] | Bacterial Biotransformation [4] | Bacterial Biotransformation [5] | Bacterial Biotransformation [6] | Bacterial Biotransformation [7] | Bacterial Biotransformation [8] | Bacterial Biotransformation [9] | Bacterial Biotransformation [10] | Bacterial Biotransformation [11] | Bacterial Biotransformation [12] | Bacterial Biotransformation [13] | Bacterial Biotransformation [14] | Bacterial Biotransformation [15] | Bacterial Biotransformation [16] | Bacterial Biotransformation [17] | Bacterial Biotransformation [18] | Bacterial Biotransformation [19] | Bacterial Biotransformation [20]
1 | CC(=O)OCC(=O)[C@@]12N=C(C)O[C@@H]1C[C@H]1[C@@H]3CCC4=CC(=O)C=C[C@]4(C)[C@H]3[C@@H](O)C[C@@]12C [DEFLAZACORT] | Compound metabolized | Compound metabolized | Compound metabolized | Compound metabolized | Compound metabolized | Compound metabolized | Compound metabolized | Compound metabolized | Compound metabolized | Compound metabolized | Compound metabolized | Compound metabolized | Compound metabolized | Compound metabolized | Compound metabolized | Compound metabolized | Compound metabolized | Compound metabolized | Compound metabolized | Compound metabolized
2 | CN(C)CC(c1ccc(O)cc1)C1(O)CCCCC1.O=C(O)CCC(=O)O (stereo not given) [DESVENLAFAXINE SUCCINATE] | Compound NOT metabolized | Compound NOT metabolized | Compound NOT metabolized | Compound NOT metabolized | Compound NOT metabolized | Compound NOT metabolized | Compound NOT metabolized | Compound NOT metabolized | Compound NOT metabolized | Compound NOT metabolized | Compound NOT metabolized | Compound NOT metabolized | Compound NOT metabolized | Compound NOT metabolized | Compound NOT metabolized | Compound NOT metabolized | Compound NOT metabolized | Compound NOT metabolized | Compound NOT metabolized | Compound NOT metabolized
3 | CN1CCN(C(=O)O[C@H]2c3nccnc3C(=O)N2c2ccc(Cl)cn2)CC1 [ESZOPICLONE] | Compound NOT metabolized | Compound NOT metabolized | Compound NOT metabolized | Compound NOT metabolized | Compound NOT metabolized | Compound NOT metabolized | Compound NOT metabolized | Compound NOT metabolized | Compound NOT metabolized | Compound NOT metabolized | Compound NOT metabolized | Compound NOT metabolized | Compound NOT metabolized | Compound NOT metabolized | Compound NOT metabolized | Compound NOT metabolized | Compound NOT metabolized | Compound NOT metabolized | Compound NOT metabolized | Compound NOT metabolized
4 | O=C1[C@H](CC[C@H](O)c2ccc(F)cc2)[C@@H](c2ccc(O)cc2)N1c1ccc(F)cc1 [EZETIMIBE] | Compound metabolized | Compound metabolized | Compound metabolized | Compound NOT metabolized | Compound NOT metabolized | Compound NOT metabolized | Compound NOT metabolized | Compound NOT metabolized | Compound NOT metabolized | Compound NOT metabolized | Compound NOT metabolized | Compound NOT metabolized | Compound NOT metabolized | Compound NOT metabolized | Compound metabolized | Compound metabolized | Compound NOT metabolized | Compound metabolized | Compound NOT metabolized | Compound metabolized
5 | CC(C)OC(=O)C(C)(C)Oc1ccc(C(=O)c2ccc(Cl)cc2)cc1 [FENOFIBRATE] | Compound NOT metabolized | Compound metabolized | Compound metabolized | Compound metabolized | Compound NOT metabolized | Compound metabolized | Compound metabolized | Compound metabolized | Compound metabolized | Compound metabolized | Compound metabolized | Compound metabolized | Compound NOT metabolized | Compound NOT metabolized | Compound NOT metabolized | Compound NOT metabolized | Compound metabolized | Compound NOT metabolized | Compound NOT metabolized | Compound metabolized
6 | O=C1NCC2(CCN(CCc3ccccc3)CC2)O1 [FENSPIRIDE] | Compound NOT metabolized | Compound NOT metabolized | Compound NOT metabolized | Compound NOT metabolized | Compound NOT metabolized | Compound NOT metabolized | Compound NOT metabolized | Compound NOT metabolized | Compound NOT metabolized | Compound NOT metabolized | Compound NOT metabolized | Compound NOT metabolized | Compound NOT metabolized | Compound NOT metabolized | Compound NOT metabolized | Compound NOT metabolized | Compound NOT metabolized | Compound NOT metabolized | Compound NOT metabolized | Compound NOT metabolized
